Experimental data reported in patent US20100298141A1, “SUBSTITUTED PYRIDINE N-OXIDE HERBICIDES” (E. I. DU PONT DE NEMOURS AND COMPANY, priority 2007, published 2010).

How the values were obtained:
barnyardgrass = experiment: Test A pre-/postemergence greenhouse test; assay type: in vivo, Echinochloa crus-galli; conditions: for Barnyardgrass plant response rating: 0 to 100 scale
In short: (§1)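 Planting was into mixed loam soil and sand; preemergence treatment followed as a directed soil spray. Concurrently, emerged plants (one- to two-leaf, 2–10 cm) received postemergence applications of identically formulated compound (non-phytotoxic solvent, surfactant). After approximately ten days under greenhouse conditions, injury was judged by eye against untreated plants.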

giant foxtail = experiment: Test A pre-/postemergence greenhouse test; assay type: in vivo, Setaria faberi; conditions: for Foxtail, Giant plant response rating: 0 to 100 scale
In short: as §1

morningglory = experiment: Test A pre-/postemergence greenhouse test; assay type: in vivo, Ipomoea spp.; conditions: for Morningglory plant response rating: 0 to 100 scale
In short: as §1

redroot pigweed = experiment: Test A pre-/postemergence greenhouse test; assay type: in vivo, Amaranthus retroflexus; conditions: for Pigweed plant response rating: 0 to 100 scale
In short: as §1

wheat [1] = experiment: Test A pre-/postemergence greenhouse test; assay type: in vivo, Triticum aestivum; conditions: for Wheat plant response rating: 0 to 100 scale
In short: as §1

corn = experiment: Test A pre-/postemergence greenhouse test; assay type: in vivo, Zea mays; conditions: for Corn plant response rating: 0 to 100 scale
In short: as §1

wheat [2] = experiment: Test C pre-/postemergence test; assay type: in vivo, Triticum aestivum; conditions: for Wheat plant response rating: preemergence, scale 0 (no effect) to 100 (complete control); for Plant response rating, Wheat: scale 0 to 100, 0 no effect, 100 complete control
In short: (§2)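 Compounds in a non-phytotoxic solvent with surfactant applied preemergence to seeded pots and, at the same time, postemergence to plants 2–18 cm tall (1- to 4-leaf stage). Paddy tests: pots flooded to 3 cm, compound applied into the water, depth held throughout.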

bermudagrass = experiment: Test C pre-/postemergence test; assay type: in vivo, Cynodon dactylon; conditions: for Plant response rating, Bermudagrass: scale 0 to 100, 0 no effect, 100 complete control
In short: as §2

Surinam grass = experiment: Test C pre-/postemergence test; assay type: in vivo, Brachiaria decumbens; conditions: for Surinam Grass plant response rating: preemergence, scale 0 (no effect) to 100 (complete control); for Plant response rating, Surinam Grass: scale 0 to 100, 0 no effect, 100 complete control
In short: as §2

crabgrass = experiment: Test C pre-/postemergence test; assay type: in vivo, Digitaria sanguinalis; conditions: for Plant response rating, Crabgrass, Large: scale 0 to 100, 0 no effect, 100 complete control
In short: as §2

Goosegrass = experiment: Test C pre-/postemergence test; assay type: in vivo, Eleusin indica; conditions: for Plant response rating, Goosegrass: scale 0 to 100, 0 no effect, 100 complete control
In short: as §2

lambsquarters = experiment: Test C pre-/postemergence test; assay type: in vivo, Chenopodium album; conditions: for Plant response rating, Lambsquarters: scale 0 to 100, 0 no effect, 100 complete control
In short: as §2

eastern black nightshade = experiment: Test C pre-/postemergence test; assay type: in vivo, Solanum ptycanthum
In short: as §2

pigweed = experiment: Test C pre-/postemergence test; assay type: in vivo, Amaranthus retroflexus; conditions: for Plant response rating, Pigweed: scale 0 to 100, 0 no effect, 100 complete control
In short: as §2

[3] = test system: common (oilseed) sunflower; experiment: Test C pre-/postemergence test; assay type: in vivo, Helianthus annuus; conditions: for Sunflower plant response rating: preemergence, scale 0 (no effect) to 100 (complete control)
In short: as §2

rice = experiment: Test C flooded paddy test; assay type: in vivo, Oryza sativa; conditions: Flood
In short: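 Ratings were visual and made relative to untreated controls after 13 to 15 greenhouse days.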

[4] = Postemergence, 125 g ai/ha, 0 is no effect, 100 is complete control
[5] = Postemergence, 500 g ai/ha, 0 is no effect, 100 is complete control
[6] = Preemergence, 125 g ai/ha, 0 no effect, 100 complete control
[7] = Preemergence, 500 g ai/ha, 0 to 100 scale where 0 is no effect and 100 is complete control
[8] = 31 g ai/ha, Preemergence, scale 0 to 100
[9] = 62 g ai/ha, preemergence, scale 0 (no effect) to 100 (complete control)
[10] = preemergence, 125 g ai/ha, scale 0 (no effect) to 100 (complete control)

CC(c1c(C(F)(F)F)nn(C)c1OC(F)F)S(=O)(=O)c1cccc[n+]1[O-] (centres unmarked) [Compound 5]
30: Corn plant response rating (corn; [4]) | Plant response rating, Wheat (wheat [2]; Postemergence, 125 g ai/ha) | Plant response rating, Wheat (wheat [2]; Postemergence, 250 g ai/ha) | Plant response rating (0 to 100), Surinam Grass (Surinam grass; Postemergence, 31 g ai/ha)
60: Morningglory plant response rating (morningglory; [4]) | Pigweed plant response rating (redroot pigweed; [4]) | Wheat plant response rating (wheat [1]; [4]) | Plant response rating, Bermudagrass (bermudagrass; Postemergence, 125 g ai/ha) | Plant response rating, Bermudagrass (bermudagrass; Postemergence, 250 g ai/ha) | Plant response rating, Surinam Grass (Surinam grass; Postemergence, 125 g ai/ha) | Plant response rating, Crabgrass, Large (crabgrass; Postemergence, 125 g ai/ha) | Plant response rating, Crabgrass, Large (crabgrass; Postemergence, 250 g ai/ha) | Plant response rating, Goosegrass (Goosegrass; Postemergence, 125 g ai/ha)
100: Plant response rating, Foxtail, Giant (giant foxtail; [7]) | Plant response rating, Morningglory (morningglory; [7]) | Pigweed plant response rating (redroot pigweed; [6]) | Plant response rating, Pigweed (redroot pigweed; [7]) | Bermudagrass plant response rating (bermudagrass; [8]) | Bermudagrass plant response rating (bermudagrass; [9]) | Plant response rating (0 to 100), Bermudagrass (bermudagrass; Preemergence, 250 g ai/ha) | Bermudagrass plant response rating (bermudagrass; [10]) | Plant response rating, Surinam Grass (Surinam grass; Postemergence, 250 g ai/ha) | Crabgrass, Large plant response rating (crabgrass; [9]) | Plant response rating (0 to 100), Crabgrass, Large (crabgrass; Preemergence, 250 g ai/ha) | Crabgrass, Large plant response rating (crabgrass; [10]) | Goosegrass plant response rating (Goosegrass; [8]) | Goosegrass plant response rating (Goosegrass; [9]) | Plant response rating (0 to 100), Goosegrass (Goosegrass; Preemergence, 250 g ai/ha) | Goosegrass plant response rating (Goosegrass; [10]) | Lambsquarters plant response rating (lambsquarters; [8]) | Lambsquarters plant response rating (lambsquarters; [9]) | Plant response rating (0 to 100), Lambsquarters (lambsquarters; Preemergence, 250 g ai/ha) | Lambsquarters plant response rating (lambsquarters; [10]) | Nightshade plant response rating (eastern black nightshade; [8]) | Nightshade plant response rating (eastern black nightshade; [9]) | Plant response rating (0 to 100), Nightshade (eastern black nightshade; Preemergence, 250 g ai/ha) | Nightshade plant response rating (eastern black nightshade; [10]) | Pigweed plant response rating (pigweed; [8]) | Pigweed plant response rating (pigweed; [9]) | Plant response rating (0 to 100), Pigweed (pigweed; Preemergence, 250 g ai/ha) | Pigweed plant response rating (pigweed; [10])
70: Barnyardgrass plant response rating (barnyardgrass; [6]) | Wheat plant response rating (wheat [1]; [5]) | Wheat plant response rating (wheat [1]; [6]) | Corn plant response rating (corn; [5]) | Wheat plant response rating (wheat [2]; 125 g ai/ha) | Surinam Grass plant response rating (Surinam grass; 62 g ai/ha) | Surinam Grass plant response rating (Surinam grass; 125 g ai/ha) | Plant response rating, Goosegrass (Goosegrass; Postemergence, 250 g ai/ha) | Sunflower plant response rating ([3]; 125 g ai/ha)
95: Plant response rating (0 to 100), Surinam Grass (Surinam grass; Preemergence, 250 g ai/ha)
40: Plant response rating, Bermudagrass (bermudagrass; Postemergence, 62 g ai/ha) | Plant response rating, Rice (rice; 31 g ai/ha, scale 0 to 100 (0 no effect, 100 complete control))
85: Plant response rating (0 to 100), Sunflower ([3]; Preemergence, 250 g ai/ha) | Plant response rating, Rice (rice; 125 g ai/ha, scale 0 to 100, 0 no effect, 100 complete control, 13 to 15 days) | Plant response rating, Rice (rice; 250 g ai/ha, scale 0 to 100 (0 no effect, 100 complete control))
55: Plant response rating (0 to 100), Surinam Grass (Surinam grass; Postemergence, 62 g ai/ha) | Plant response rating, Goosegrass (Goosegrass; Postemergence, 62 g ai/ha) | Sunflower plant response rating ([3]; 62 g ai/ha)
5: Plant response rating (0 to 100), Bermudagrass (bermudagrass; Postemergence, 31 g ai/ha) | Plant response rating (0 to 100), Crabgrass, Large (crabgrass; Postemergence, 31 g ai/ha)
0: Plant response rating (0 to 100), Wheat (wheat [2]; Postemergence, 31 g ai/ha) | Plant response rating (0 to 100), Wheat (wheat [2]; Postemergence, 62 g ai/ha) | Plant response rating (0 to 100), Goosegrass (Goosegrass; Postemergence, 31 g ai/ha) | Plant response rating (0 to 100), Lambsquarters (lambsquarters; Postemergence, 31 g ai/ha) | Plant response rating, Lambsquarters (lambsquarters; Postemergence, 62 g ai/ha) | Plant response rating, Lambsquarters (lambsquarters; Postemergence, 125 g ai/ha) | Plant response rating, Lambsquarters (lambsquarters; Postemergence, 250 g ai/ha) | Plant response rating (0 to 100), Pigweed (pigweed; Postemergence, 31 g ai/ha) | Plant response rating (0 to 100), Pigweed (pigweed; Postemergence, 62 g ai/ha) | Plant response rating, Pigweed (pigweed; Postemergence, 125 g ai/ha) | Plant response rating, Pigweed (pigweed; Postemergence, 250 g ai/ha)
98: Plant response rating (0 to 100), Wheat (wheat [2]; Preemergence, 250 g ai/ha) | Crabgrass, Large plant response rating (crabgrass; [8])
90: Plant response rating, Barnyardgrass (barnyardgrass; [7]) | Foxtail, Giant plant response rating (giant foxtail; [4]) | Foxtail, Giant plant response rating (giant foxtail; [5]) | Foxtail, Giant plant response rating (giant foxtail; [6]) | Morningglory plant response rating (morningglory; [5]) | Morningglory plant response rating (morningglory; [6]) | Plant response rating, Wheat (wheat [1]; [7])
20: Corn plant response rating (corn; [6]) | Wheat plant response rating (wheat [2]; 62 g ai/ha) | Plant response rating, Crabgrass, Large (crabgrass; Postemergence, 62 g ai/ha)
80: Barnyardgrass plant response rating (barnyardgrass; [4]) | Barnyardgrass plant response rating (barnyardgrass; [5]) | Pigweed plant response rating (redroot pigweed; [5]) | Plant response rating, Corn (corn; [7]) | Plant response rating, Rice (rice; 62 g ai/ha, scale 0 to 100, 0 no effect, 100 complete control, 13 to 15 days)
